Values after ≈ are worked out from the molar mass of the structure shown. Where a SMILES comes first, the peptide text is derived from it.
What was measured:
[1] = test system: Escherichia coli; assay: Antibacterial activity against Escherichia coli ATCC 25922 after 18 to 24 hrs in presence of 100% human serum by CLSI-based broth microdilution method; type: functional; details: time hrs 18-24
[2] = Therapeutic index, ratio of MHC for human RBC to geometric mean of peptide MIC for Enterococcus faecalis ATCC 29212; type: toxicity; details: human red blood cells (RBC), read-out: TI
[3] = test system: Staphylococcus aureus; assay: Antibacterial activity against Staphylococcus aureus ATCC 29213 after 18 to 24 hrs by CLSI-based broth microdilution method; type: functional; details: time hrs 18-24
[4] = Hemolytic activity in human RBC assessed as hemolysis at 1 to 128 uM relative to control; type: ADME, cell-based, Erythrocyte; details: human red blood cells (RBC), dose 1-128 µM, read-out: Activity
[5] = test system: Escherichia coli; assay: Antibacterial activity against Escherichia coli ATCC 25922 after 18 to 24 hrs in presence of 4.5 mM K+ by CLSI-based broth microdilution method; type: functional; details: time hrs 18-24
[6] = test system: Staphylococcus aureus; assay: Antibacterial activity against Staphylococcus aureus ATCC 29213 after 18 to 24 hrs in presence of 8 uM Zn2+ by CLSI-based broth microdilution method; type: functional; details: time hrs 18-24
[7] = test system: Escherichia coli; assay: Antibacterial activity against Escherichia coli ATCC 25922 after 18 to 24 hrs in presence of 150 mM Na+ by CLSI-based broth microdilution method; type: functional; details: time hrs 18-24
[8] = Therapeutic index, ratio of MHC for human RBC to geometric mean of peptide MIC for Staphylococcus epidermidis ATCC 12228; type: toxicity; details: human red blood cells (RBC), read-out: TI
[9] = Therapeutic index, ratio of MHC for human RBC to geometric mean of peptide MIC for Salmonella typhimurium 7731; type: toxicity; details: human red blood cells (RBC), read-out: TI
[10] = Stability of compound at 100 degreeC after 30 to 90 mins; type: physicochemical; details: time 30-90 min
[11] = test system: Escherichia coli; assay: Antibacterial activity against Escherichia coli ATCC 25922 after 18 to 24 hrs in presence of 1 mM Mg2+ by CLSI-based broth microdilution method; type: functional; details: time hrs 18-24
[12] = Therapeutic index, ratio of MHC for human RBC to geometric mean of peptide MIC for Streptococcus agalactiae H92; type: toxicity; details: human red blood cells (RBC), read-out: TI
[13] = test system: Salmonella typhimurium; assay: Antibacterial activity against Salmonella typhimurium 14028 after 18 to 24 hrs by CLSI-based broth microdilution method; type: functional, Salmonella enterica subsp. enterica serovar Typhimurium; details: Salmonella enterica, time hrs 18-24
[14] = Therapeutic index, ratio of MHC for human RBC to geometric mean of peptide MIC for Salmonella pullorum 7913; type: toxicity; details: human red blood cells (RBC), read-out: TI
[15] = Therapeutic index, ratio of MHC for human RBC to geometric mean of peptide MIC for methicillin-resistant Staphylococcus aureus 43300; type: toxicity; details: human red blood cells (RBC), read-out: TI
[16] = test system: Staphylococcus aureus; assay: Antibacterial activity against Staphylococcus aureus ATCC 29213 after 18 to 24 hrs in presence of 25% human serum by CLSI-based broth microdilution method; type: functional; details: time hrs 18-24
[17] = test system: Escherichia coli; assay: Antibacterial activity against Escherichia coli UB1005 after 18 to 24 hrs by CLSI-based broth microdilution method; type: functional; details: time hrs 18-24
[18] = Cytotoxicity against HEK-293T cells assessed as cell viability at 128 uM by MTT assay relative to control; type: cell-based; details: human, read-out: Activity
[19] = test system: Staphylococcus aureus; assay: Antibacterial activity against Staphylococcus aureus ATCC 29213 after 18 to 24 hrs in presence of 150 mM Na+ by CLSI-based broth microdilution method; type: functional; details: time hrs 18-24
[20] = Therapeutic index, ratio of MHC for human RBC to geometric mean of peptide MIC for Salmonella typhimurium 14028; type: toxicity; details: human red blood cells (RBC), read-out: TI
[21] = test system: Streptococcus agalactiae; assay: Antibacterial activity against Streptococcus agalactiae H92 after 18 to 24 hrs by CLSI-based broth microdilution method; type: functional; details: time hrs 18-24
[22] = Cytotoxicity against mouse RAW264.7 cells assessed as cell viability at 128 uM by MTT assay relative to control; type: cell-based; details: read-out: Activity
[23] = test system: Staphylococcus aureus; assay: Antibacterial activity against Staphylococcus aureus ATCC 29213 after 18 to 24 hrs in presence of 4.5 mM K+ by CLSI-based broth microdilution method; type: functional; details: time hrs 18-24
[24] = Therapeutic index, ratio of MHC for human RBC to geometric mean of peptide MIC for Staphylococcus aureus 11011; type: toxicity; details: human red blood cells (RBC), read-out: TI
[25] = test system: Escherichia coli; assay: Antibacterial activity against Escherichia coli ATCC 25922 after 18 to 24 hrs in presence of 8 uM Zn2+ by CLSI-based broth microdilution method; type: functional; details: time hrs 18-24
[26] = test system: Escherichia coli; assay: Antibacterial activity against Escherichia coli ATCC 25922 after 18 to 24 hrs in presence of 6 uM Fe3+ by CLSI-based broth microdilution method; type: functional; details: time hrs 18-24
[27] = test system: Staphylococcus aureus; assay: Antibacterial activity against Staphylococcus aureus ATCC 29213 after 18 to 24 hrs in presence of 1 mM Mg2+ by CLSI-based broth microdilution method; type: functional; details: time hrs 18-24
[28] = test system: Salmonella enterica; assay: Antibacterial activity against Salmonella choleraesuis 503 after 18 to 24 hrs by CLSI-based broth microdilution method; type: functional; details: time hrs 18-24
[29] = test system: Escherichia coli; assay: Antibacterial activity against Escherichia coli ATCC 25922 after 18 to 24 hrs in presence of 25% human serum by CLSI-based broth microdilution method; type: functional; details: time hrs 18-24
[30] = test system: Staphylococcus aureus; assay: Antibacterial activity against Staphylococcus aureus ATCC 29213 after 18 to 24 hrs in presence of 100% human serum by CLSI-based broth microdilution method; type: functional; details: time hrs 18-24
[31] = Antibacterial activity against Salmonella pullorum 7913 after 18 to 24 hrs by CLSI-based broth microdilution method; type: functional, Salmonella enterica subsp. enterica serovar Pullorum; details: Salmonella enterica, time hrs 18-24
[32] = Therapeutic index, ratio of MHC for human RBC to geometric mean of peptide MIC for Salmonella choleraesuis 503; type: toxicity; details: human red blood cells (RBC), read-out: TI
[33] = Therapeutic index, ratio of MHC for human RBC to geometric mean of peptide MIC for Escherichia coli ATCC 25922; type: toxicity; details: human red blood cells (RBC), read-out: TI
[34] = test system: Enterococcus faecalis; assay: Antibacterial activity against Enterococcus faecalis ATCC 29212 after 18 to 24 hrs by CLSI-based broth microdilution method; type: functional; details: time hrs 18-24
[35] = test system: Staphylococcus aureus; assay: Antibacterial activity against Staphylococcus aureus 11011 after 18 to 24 hrs by CLSI-based broth microdilution method; type: functional; details: time hrs 18-24
[36] = test system: Staphylococcus aureus; assay: Antibacterial activity against Staphylococcus aureus ATCC 29213 after 18 to 24 hrs in presence of 6 uM NH4+ by CLSI-based broth microdilution method; type: functional; details: time hrs 18-24
[37] = test system: Erythrocyte; assay: Hemolytic activity in human RBC assessed as hemolysis; type: ADME, cell-based
[38] = test system: Staphylococcus aureus; assay: Antibacterial activity against methicillin-resistant Staphylococcus aureus 43300 after 18 to 24 hrs by CLSI-based broth microdilution method; type: functional; details: time hrs 18-24
[39] = test system: Salmonella typhimurium; assay: Antibacterial activity against Salmonella typhimurium 7731 after 18 to 24 hrs by CLSI-based broth microdilution method; type: functional, Salmonella enterica subsp. enterica serovar Typhimurium; details: Salmonella enterica, time hrs 18-24
[40] = test system: Escherichia coli; assay: Antibacterial activity against Escherichia coli ATCC 25922 after 18 to 24 hrs in presence of 50% human serum by CLSI-based broth microdilution method; type: functional; details: time hrs 18-24
[41] = test system: Staphylococcus epidermidis; assay: Antibacterial activity against Staphylococcus epidermidis ATCC 12228 after 18 to 24 hrs by CLSI-based broth microdilution method; type: functional; details: time hrs 18-24
[42] = test system: Staphylococcus aureus; assay: Antibacterial activity against Staphylococcus aureus ATCC 29213 after 18 to 24 hrs in presence of 50% human serum by CLSI-based broth microdilution method; type: functional; details: time hrs 18-24
[43] = test system: Escherichia coli; assay: Antibacterial activity against Escherichia coli ATCC 25922 after 18 to 24 hrs in presence of 6 uM NH4+ by CLSI-based broth microdilution method; type: functional; details: time hrs 18-24
[44] = Therapeutic index, ratio of MHC for human RBC to geometric mean of peptide MIC for Staphylococcus aureus ATCC 29213; type: toxicity; details: human red blood cells (RBC), read-out: TI
[45] = Therapeutic index, ratio of MHC for human RBC to geometric mean of peptide MIC for Escherichia coli UB1005; type: toxicity; details: human red blood cells (RBC), read-out: TI
[46] = test system: Staphylococcus aureus; assay: Antibacterial activity against Staphylococcus aureus ATCC 29213 after 18 to 24 hrs in presence of 6 uM Fe3+ by CLSI-based broth microdilution method; type: functional; details: time hrs 18-24
[47] = test system: Escherichia coli; assay: Antibacterial activity against Escherichia coli ATCC 25922 after 18 to 24 hrs by CLSI-based broth microdilution method; type: functional; details: time hrs 18-24

For CC[C@H](C)[C@H](N)C(=O)N[C@@H](CS)C(=O)N[C@@H](CCCNC(=N)N)C(=O)N[C@@H](CCCCN)C(=O)N1CCC[C@H]1C(=O)N[C@H](C(=O)N[C@H](C(=O)N[C@@H](CS)C(=O)N[C@@H](CCCNC(=N)N)C(=O)N[C@@H](CCCCN)C(=O)N1CCC[C@H]1C(=O)N[C@H](C(=O)N[C@H](C(=O)N[C@@H](CS)C(=O)N[C@@H](CCCNC(=N)N)C(=O)N[C@@H](CCCCN)C(=O)N1CCC[C@H]1C(=O)N[C@H](C(=O)N[C@H](C(=O)N[C@@H](CS)C(=O)N[C@@H](CCCNC(=N)N)C(=O)N[C@@H](CCCCN)C(=O)N1CCC[C@H]1C(=O)N[C@H](C(N)=O)[C@@H](C)CC)[C@@H](C)CC)[C@@H](C)CC)[C@@H](C)CC)[C@@H](C)CC)[C@@H](C)CC)[C@@H](C)CC (H-ICRKPIICRKPIICRKPIICRKPI-NH2), the MIC [1] was 16 µM, the selectivity ratio [2] was 2 and the MIC [3] was greater than 64 µM. It also gave a hemolysis at up to 128 µM [4] of less than 5%, an MIC [5] of 4 µM and an MIC [6] greater than 64 µM. It also gave an MIC [7] of 32 µM, a selectivity ratio [8] of 2 and a selectivity ratio [9] of 32. The Stabilty [10] was “Stable”, the MIC [11] was 8 µM and the selectivity ratio [12] was 2. It also gave an MIC [13] of 2 µM (≈ 5.72 µg/mL), a selectivity ratio [14] of 32 and a selectivity ratio [15] of 2. The MIC [16] was greater than 64 µM, the MIC [17] was 2 µM (≈ 5.72 µg/mL) and the viability at 128 µM [18] was greater than 90%. For the same compound, the MIC [19] was greater than 64 µM, the selectivity ratio [20] was 32 and the MIC [21] was greater than 64 µM. The viability at 128 µM [22] was greater than 90%, the MIC [23] was greater than 64 µM and the selectivity ratio [24] was 2. For the same compound, the MIC [25] was 2 µM, the MIC [26] was 4 µM and the MIC [27] was greater than 64 µM. For the same compound, the MIC [28] was 8 µM (≈ 22.9 µg/mL), the MIC [29] was 4 µM and the MIC [30] was greater than 64 µM. The MIC [31] was 16 µM (≈ 45.8 µg/mL), the selectivity ratio [32] was 32 and the selectivity ratio [33] was 32. It also gave an MIC [34] greater than 64 µM, an MIC [35] greater than 64 µM and an MIC [36] greater than 64 µM. For the same compound, the MHC [37] was greater than 128 µM, the MIC [38] was greater than 64 µM and the MIC [39] was 4 µM (≈ 11.4 µg/mL). The MIC [40] was 8 µM, the MIC [41] was greater than 64 µM and the MIC [42] was greater than 64 µM. It also gave an MIC [43] of 2 µM, a selectivity ratio [44] of 2 and a selectivity ratio [45] of 32. For the same compound, the MIC [46] was greater than 64 µM and the MIC [47] was 2 µM (≈ 5.72 µg/mL).

From ChEMBL document CHEMBL4665709, “Rational Avoidance of Protease Cleavage Sites and Symmetrical End-Tagging Significantly Enhances the Stability and Therapeutic Potential of Antimicrobial Peptides” (J Med Chem, 2020)
